Experimental data reported in paper PMC12969314 (European journal of medicinal chemistry, 2022).

Tests used:
D4 receptor = molecular target: T1, D4 receptor (Homo sapiens, UniProt P21917); type: binding; conditions: for selectivity against the dopamine receptor family: σ1 over D1-5
T1 sequence (P21917 1-419): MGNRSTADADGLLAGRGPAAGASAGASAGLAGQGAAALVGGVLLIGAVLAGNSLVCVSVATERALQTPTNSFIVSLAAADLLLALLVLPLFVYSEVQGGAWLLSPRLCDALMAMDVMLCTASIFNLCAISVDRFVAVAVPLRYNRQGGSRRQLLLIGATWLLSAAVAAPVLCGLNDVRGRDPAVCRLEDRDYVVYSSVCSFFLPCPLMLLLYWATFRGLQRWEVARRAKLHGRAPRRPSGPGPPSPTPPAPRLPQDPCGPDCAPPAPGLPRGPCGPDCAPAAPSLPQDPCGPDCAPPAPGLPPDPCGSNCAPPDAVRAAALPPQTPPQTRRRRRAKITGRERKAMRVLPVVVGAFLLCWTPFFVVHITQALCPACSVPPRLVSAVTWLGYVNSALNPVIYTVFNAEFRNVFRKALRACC

D1 receptor = D1 receptor (Homo sapiens, UniProt P21728); experiment: D1 receptor radioligand binding, [3H]SCH23390, HEK293 membranes
DAT = DAT (Homo sapiens, UniProt Q01959); experiment: PDSP panel binding, DAT; conditions: for selectivity versus DAT: σ1 over DAT
[1] = Human liver microsomal intrinsic clearance; type: in vitro ADME; conditions: human; for CLint scaled: liver microsomes, Intrinsic clearance hCLINT, human liver microsomes; for Predicted hepatic clearance hCLHEP: well-stirred organ CL model, binding terms excluded
[2] = Mouse liver microsomal intrinsic clearance; type: in vitro ADME; conditions: for CLint scaled: liver microsomes; for Predicted hepatic clearance mCLHEP: well-stirred organ CL model, binding terms excluded
[3] = Human plasma protein binding, equilibrium dialysis; type: in vitro ADME
σ2 receptor = σ2 receptor (Homo sapiens, UniProt Q5BJF2); experiment: σ2 receptor radioligand binding, [3H]DTG, HEK293 membranes; conditions: ratio, σ1 over σ2
α2A = molecular target: T2, α2A (Homo sapiens, UniProt P08913); experiment: PDSP panel binding, α2A
T2 sequence (P08913 1-465): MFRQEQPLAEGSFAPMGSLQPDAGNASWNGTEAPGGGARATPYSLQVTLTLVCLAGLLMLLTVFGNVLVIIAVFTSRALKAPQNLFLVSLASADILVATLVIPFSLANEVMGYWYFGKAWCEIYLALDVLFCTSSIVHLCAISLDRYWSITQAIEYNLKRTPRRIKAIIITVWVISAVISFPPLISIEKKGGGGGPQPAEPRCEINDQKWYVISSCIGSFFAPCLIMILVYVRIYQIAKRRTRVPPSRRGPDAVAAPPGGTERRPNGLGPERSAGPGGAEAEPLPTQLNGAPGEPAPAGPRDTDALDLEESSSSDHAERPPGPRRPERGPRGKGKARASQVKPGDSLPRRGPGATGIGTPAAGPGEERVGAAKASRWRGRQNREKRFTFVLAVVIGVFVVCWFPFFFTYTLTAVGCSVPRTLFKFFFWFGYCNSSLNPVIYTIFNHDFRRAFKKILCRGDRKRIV

[4] = Mouse plasma protein binding, equilibrium dialysis; type: in vitro ADME; conditions: mouse, plasma, fu (mPPB), fraction, used for Kp,uu
[5] = Discrete mouse in vivo PK study, plasma and brain; conditions: for half-life: ip, 5 mg/kg
[6] = Mouse brain homogenate binding; type: in vitro ADME
SERT = SERT (Homo sapiens, UniProt P31645); experiment: PDSP panel binding, SERT; conditions: σ1 over SERT
α2C = molecular target: T3, α2C (Homo sapiens, UniProt P18825); experiment: PDSP panel binding, α2C
T3 sequence (P18825 1-462): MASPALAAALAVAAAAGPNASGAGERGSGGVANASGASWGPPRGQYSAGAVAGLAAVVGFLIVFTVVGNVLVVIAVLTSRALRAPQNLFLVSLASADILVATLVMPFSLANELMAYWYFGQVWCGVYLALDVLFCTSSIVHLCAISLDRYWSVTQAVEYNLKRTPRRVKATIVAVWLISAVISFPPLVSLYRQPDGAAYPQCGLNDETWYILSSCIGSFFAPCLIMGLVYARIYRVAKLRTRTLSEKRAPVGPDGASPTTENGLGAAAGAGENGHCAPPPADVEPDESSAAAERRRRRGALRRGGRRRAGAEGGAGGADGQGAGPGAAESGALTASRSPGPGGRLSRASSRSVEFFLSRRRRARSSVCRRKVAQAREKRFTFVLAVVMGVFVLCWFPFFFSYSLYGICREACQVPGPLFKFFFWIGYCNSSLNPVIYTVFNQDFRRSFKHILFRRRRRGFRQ

DAT, sequence (Q01959 whole entry, species assumed): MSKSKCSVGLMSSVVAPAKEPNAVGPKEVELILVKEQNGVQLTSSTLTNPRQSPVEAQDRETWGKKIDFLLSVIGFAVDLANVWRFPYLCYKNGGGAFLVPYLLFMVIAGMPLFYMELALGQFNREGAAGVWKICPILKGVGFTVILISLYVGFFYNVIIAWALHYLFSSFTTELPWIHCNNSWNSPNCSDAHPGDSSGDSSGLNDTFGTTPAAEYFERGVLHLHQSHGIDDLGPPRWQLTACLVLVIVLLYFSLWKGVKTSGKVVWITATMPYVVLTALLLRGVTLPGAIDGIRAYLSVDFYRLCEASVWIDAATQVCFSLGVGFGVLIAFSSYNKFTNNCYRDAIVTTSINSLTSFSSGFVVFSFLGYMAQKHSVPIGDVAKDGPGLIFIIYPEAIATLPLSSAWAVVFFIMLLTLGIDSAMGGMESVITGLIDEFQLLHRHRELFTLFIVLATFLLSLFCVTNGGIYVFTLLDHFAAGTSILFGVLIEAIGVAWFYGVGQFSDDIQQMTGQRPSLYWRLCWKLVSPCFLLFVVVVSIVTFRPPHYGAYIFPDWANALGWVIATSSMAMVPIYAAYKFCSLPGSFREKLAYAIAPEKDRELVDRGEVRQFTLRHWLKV
σ2 receptor, sequence (Q5BJF2 whole entry, species assumed): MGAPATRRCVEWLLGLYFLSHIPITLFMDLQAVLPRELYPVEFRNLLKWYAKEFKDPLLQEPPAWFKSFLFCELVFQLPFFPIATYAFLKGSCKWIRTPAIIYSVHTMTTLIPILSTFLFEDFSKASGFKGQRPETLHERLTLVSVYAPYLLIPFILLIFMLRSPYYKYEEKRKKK
D1 receptor, sequence (P21728 whole entry): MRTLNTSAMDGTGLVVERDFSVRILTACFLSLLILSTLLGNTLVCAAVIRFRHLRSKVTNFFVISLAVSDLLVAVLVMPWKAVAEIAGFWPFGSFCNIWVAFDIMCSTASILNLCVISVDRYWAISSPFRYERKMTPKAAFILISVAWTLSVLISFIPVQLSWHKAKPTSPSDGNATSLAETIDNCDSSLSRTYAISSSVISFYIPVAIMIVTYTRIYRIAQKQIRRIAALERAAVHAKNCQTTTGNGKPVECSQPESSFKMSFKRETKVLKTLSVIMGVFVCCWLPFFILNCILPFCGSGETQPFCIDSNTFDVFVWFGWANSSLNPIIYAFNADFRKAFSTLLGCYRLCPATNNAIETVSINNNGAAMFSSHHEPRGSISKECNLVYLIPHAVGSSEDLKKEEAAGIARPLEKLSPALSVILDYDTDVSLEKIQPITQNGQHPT
SERT, sequence (P31645 whole entry, species assumed): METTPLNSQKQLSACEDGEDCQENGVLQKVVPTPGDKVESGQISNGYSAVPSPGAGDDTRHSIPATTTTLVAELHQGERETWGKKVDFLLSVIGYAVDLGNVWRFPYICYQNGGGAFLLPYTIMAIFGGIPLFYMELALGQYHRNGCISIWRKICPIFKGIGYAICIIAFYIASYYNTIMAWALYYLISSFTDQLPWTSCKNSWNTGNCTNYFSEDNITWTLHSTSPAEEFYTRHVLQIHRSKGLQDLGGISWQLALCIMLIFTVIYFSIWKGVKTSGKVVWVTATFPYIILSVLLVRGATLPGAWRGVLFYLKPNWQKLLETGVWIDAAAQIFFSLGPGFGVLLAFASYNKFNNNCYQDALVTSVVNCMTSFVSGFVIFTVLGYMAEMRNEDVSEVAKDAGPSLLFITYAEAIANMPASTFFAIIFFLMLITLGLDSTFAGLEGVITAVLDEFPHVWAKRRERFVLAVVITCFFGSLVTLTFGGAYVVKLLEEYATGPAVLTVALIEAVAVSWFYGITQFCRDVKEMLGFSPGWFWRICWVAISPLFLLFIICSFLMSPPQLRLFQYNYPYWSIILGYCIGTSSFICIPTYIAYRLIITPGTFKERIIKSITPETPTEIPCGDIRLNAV

SMILES	Ki (D4 receptor) [µM]	selectivity against the dopamine receptor family (D4 receptor) [fold]	CLint scaled [1] [mL/min/kg]	Predicted hepatic clearance hCLHEP [1] [mL/min/kg]	CLint scaled [2] [mL/min/kg]	Predicted hepatic clearance mCLHEP [2] [mL/min/kg]	selectivity σ1:σ2 (σ2 receptor)	also measured
COc1ccc(CN2CCC[C@@H](OCc3ccc(F)c(C)c3)C2)cc1F [Compound 19b, (R)-3-((4-fluoro-3-methylbenzyl)oxy)-1-(3-fluoro-4-methoxybenzyl)piperidine]	–	–	674	19.5	961	82.4	–	Stability in human plasma (hPPB column) [3]: c
Fc1cc(COC2CCN(Cc3ccc4[nH]cnc4c3)CC2)ccc1Cl [Compound 10b, 5-((4-((4-chloro-3-fluorobenzyl)oxy)piperidin-1-yl)methyl)-1H-benzo[d]imidazole]	–	–	–	14.2	–	45.1	–	fraction unbound [4]: 0.189; half-life ([5]; brain): 414 min; half-life ([5]; plasma): 222 min; fraction unbound [6]: 0.093
Fc1ccc(COC2CCN(Cc3ccc4[nH]cnc4c3)CC2)cc1F [Compound 10a, 5-((4-((3,4-difluorobenzyl)oxy)piperidin-1-yl)methyl)-1H-benzo[d]imidazole]	–	> 490	< 20	<10	–	46.0	20	selectivity versus SERT (SERT): 20; Ki (α2C): 853 nM; selectivity versus α2C (α2C; σ1 over α2C): 103; fraction unbound [4]: 0.358; B:P Kp,uu ([5]; IP 5 mg/kg, 5 h, free brain to free plasma concentration): 3.68; half-life ([5]; brain): 546 min; half-life ([5]; plasma): 126 min; fraction unbound [6]: 0.205

Second part, led by results:

Ki (D4 receptor) [µM]	selectivity against the dopamine receptor family (D4 receptor) [fold]	CLint scaled [1] [mL/min/kg]	Predicted hepatic clearance hCLHEP [1] [mL/min/kg]	CLint scaled [2] [mL/min/kg]	Predicted hepatic clearance mCLHEP [2] [mL/min/kg]	selectivity σ1:σ2 (σ2 receptor)	SMILES	also measured
> 10	–	–	–	–	–	–	COc1ccc(CO[C@H]2CCCN(Cc3cccc(C)c3)C2)cc1F [Compound 19h, (S)-3-((3-fluoro-4-methoxybenzyl)oxy)-1-(3-methylbenzyl)piperidine]	inhibition at 10 µM (D4 receptor; read-out: D4 % inhibition): 46%; Ki (D1 receptor): > 10 µM
–	> 74	842	19.6	485	76.0	–	Cc1ccc(CO[C@H]2CCCN(Cc3ccc(C#N)cc3)C2)cc1 [Compound 19f, (S)-4-((3-((4-methylbenzyl)oxy)piperidin-1-yl)methyl) benzonitrile]	selectivity versus DAT (DAT): 300
> 10	–	223	18.4	696	79.8	6	Fc1ccc(CN2CCCC23CCN(Cc2cn4ccccc4n2)C3)cc1F (centres unmarked) [Compound 25a, 1-(3,4-difluorobenzyl)-7-(imidazo[1,2-a]pyridin-2-ylmethyl)-1,7-diazaspiro[4.4]nonane]	Ki (α2A): 697 nM; selectivity versus α2A (α2A; σ1 over α2A): 194
> 10	> 74	1400	19.8	> 2400	86.8	31	Cc1ccc(CO[C@H]2CCCN(Cc3cccc(F)c3)C2)cc1 [Compound 19g, (S)-1-(3-fluorobenzyl)-3-((4-methylbenzyl)oxy)piperidine]	Ki (DAT): 8.81 µM; selectivity versus DAT (DAT): 473
